Drawing on patent publication US12157741B2, “Macrocyclic inhibitors of DYRK1A” (DANA-FARBER CANCER INSTITUTE, INC., priority 2018, dated 2024), this text covers Ambit profiling for two compounds.

Where two headings read alike, the source gives them in different places.

Experiment [1] addresses various enzymes (Homo sapiens, UniProt O15075). Particulars: DCAMKL1; 1 uM.
Protocol: (§1) Ambit profiling from Eurofins (formerly Discoverx) was conducted in accordance with the manufacturer's instructions.
Experiment [2] addresses various enzymes (Homo sapiens, UniProt O60674). Particulars: JAK2(JH1domain-catalytic); 1 uM.
Protocol: as §1
Experiment [3] concerns the target various enzymes (Homo sapiens, UniProt O94804). Particulars: LOK; 1 uM.
Protocol: as §1
The target in experiment [4] is various enzymes (Homo sapiens, UniProt P00533, L858R).
Protocol: as §1
Experiment [5] has as its target T1, various enzymes (Homo sapiens, UniProt P29323).
T1 sequence (P29323 19-1055): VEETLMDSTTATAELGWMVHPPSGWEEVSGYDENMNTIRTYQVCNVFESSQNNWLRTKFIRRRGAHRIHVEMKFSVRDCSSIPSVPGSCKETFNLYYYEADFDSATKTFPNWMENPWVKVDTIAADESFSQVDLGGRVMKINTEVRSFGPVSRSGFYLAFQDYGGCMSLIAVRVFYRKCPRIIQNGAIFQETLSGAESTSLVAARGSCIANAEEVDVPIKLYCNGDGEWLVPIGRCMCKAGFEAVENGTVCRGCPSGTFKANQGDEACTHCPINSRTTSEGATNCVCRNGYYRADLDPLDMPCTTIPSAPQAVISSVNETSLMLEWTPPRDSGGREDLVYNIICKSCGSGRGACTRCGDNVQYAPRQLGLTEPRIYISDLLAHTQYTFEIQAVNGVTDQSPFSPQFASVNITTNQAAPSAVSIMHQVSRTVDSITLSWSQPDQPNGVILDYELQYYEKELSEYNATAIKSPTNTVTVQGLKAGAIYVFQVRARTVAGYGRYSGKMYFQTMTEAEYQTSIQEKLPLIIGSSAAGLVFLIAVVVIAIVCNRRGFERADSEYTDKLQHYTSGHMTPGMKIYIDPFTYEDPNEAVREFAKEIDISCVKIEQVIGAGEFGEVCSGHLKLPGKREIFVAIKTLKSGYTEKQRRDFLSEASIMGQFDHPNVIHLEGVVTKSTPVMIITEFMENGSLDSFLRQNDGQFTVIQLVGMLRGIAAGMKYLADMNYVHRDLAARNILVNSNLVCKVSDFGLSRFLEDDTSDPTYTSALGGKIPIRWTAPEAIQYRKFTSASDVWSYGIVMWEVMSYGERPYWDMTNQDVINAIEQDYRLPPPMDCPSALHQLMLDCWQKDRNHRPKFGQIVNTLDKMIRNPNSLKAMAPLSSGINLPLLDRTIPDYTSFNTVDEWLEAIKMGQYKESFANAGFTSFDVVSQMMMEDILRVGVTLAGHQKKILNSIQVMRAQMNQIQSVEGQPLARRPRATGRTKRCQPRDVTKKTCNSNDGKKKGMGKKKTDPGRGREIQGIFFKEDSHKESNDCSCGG
Particulars: EPHB2; 1 uM.
Protocol: as §1

Experiment [6] deals with various enzymes (Homo sapiens, UniProt Q14004). Particulars: CDC2L5; 1 uM.
various enzymes (Homo sapiens, UniProt Q14004), sequence (Q14004 whole entry): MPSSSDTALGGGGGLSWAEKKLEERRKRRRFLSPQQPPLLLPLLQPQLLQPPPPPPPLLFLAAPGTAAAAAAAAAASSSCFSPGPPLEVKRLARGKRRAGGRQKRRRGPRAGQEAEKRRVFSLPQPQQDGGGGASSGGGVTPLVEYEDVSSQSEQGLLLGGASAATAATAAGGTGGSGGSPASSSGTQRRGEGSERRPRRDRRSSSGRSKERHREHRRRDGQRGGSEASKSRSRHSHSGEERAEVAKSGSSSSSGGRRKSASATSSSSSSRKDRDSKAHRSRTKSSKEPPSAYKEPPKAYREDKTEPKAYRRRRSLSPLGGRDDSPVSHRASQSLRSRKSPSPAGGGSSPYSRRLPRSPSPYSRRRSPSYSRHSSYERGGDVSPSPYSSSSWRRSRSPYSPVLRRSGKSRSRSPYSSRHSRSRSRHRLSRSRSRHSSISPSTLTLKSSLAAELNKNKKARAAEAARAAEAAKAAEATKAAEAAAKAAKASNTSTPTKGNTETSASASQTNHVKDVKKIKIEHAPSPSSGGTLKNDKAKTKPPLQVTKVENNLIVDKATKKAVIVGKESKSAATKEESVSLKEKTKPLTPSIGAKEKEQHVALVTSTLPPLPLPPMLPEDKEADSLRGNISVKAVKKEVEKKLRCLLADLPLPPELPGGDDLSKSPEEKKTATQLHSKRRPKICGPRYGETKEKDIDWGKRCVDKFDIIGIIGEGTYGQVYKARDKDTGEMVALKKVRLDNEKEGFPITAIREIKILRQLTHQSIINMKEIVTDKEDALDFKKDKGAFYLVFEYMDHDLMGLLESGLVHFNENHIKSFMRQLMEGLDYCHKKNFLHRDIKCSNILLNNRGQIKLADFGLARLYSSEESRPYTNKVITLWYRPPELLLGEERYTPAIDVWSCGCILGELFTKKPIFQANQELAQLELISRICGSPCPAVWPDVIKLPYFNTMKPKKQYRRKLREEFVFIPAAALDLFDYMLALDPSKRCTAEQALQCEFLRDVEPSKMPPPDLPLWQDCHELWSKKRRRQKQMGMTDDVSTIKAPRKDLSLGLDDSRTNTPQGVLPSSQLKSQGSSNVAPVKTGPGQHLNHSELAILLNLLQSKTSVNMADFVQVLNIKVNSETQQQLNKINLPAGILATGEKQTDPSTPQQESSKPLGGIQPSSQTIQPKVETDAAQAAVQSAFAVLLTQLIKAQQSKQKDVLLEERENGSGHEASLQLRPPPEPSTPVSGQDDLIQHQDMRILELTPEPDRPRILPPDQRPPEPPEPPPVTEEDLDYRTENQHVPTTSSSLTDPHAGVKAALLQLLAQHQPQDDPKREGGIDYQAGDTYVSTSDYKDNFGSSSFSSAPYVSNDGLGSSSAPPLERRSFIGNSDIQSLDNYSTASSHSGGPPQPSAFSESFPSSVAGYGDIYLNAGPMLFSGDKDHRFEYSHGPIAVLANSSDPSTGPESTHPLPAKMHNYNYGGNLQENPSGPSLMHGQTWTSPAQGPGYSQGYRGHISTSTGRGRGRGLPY
Protocol: as §1
Experiment [7] addresses T2, various enzymes (Homo sapiens, UniProt Q9NRM7).
T2 sequence (Q9NRM7 1-1088): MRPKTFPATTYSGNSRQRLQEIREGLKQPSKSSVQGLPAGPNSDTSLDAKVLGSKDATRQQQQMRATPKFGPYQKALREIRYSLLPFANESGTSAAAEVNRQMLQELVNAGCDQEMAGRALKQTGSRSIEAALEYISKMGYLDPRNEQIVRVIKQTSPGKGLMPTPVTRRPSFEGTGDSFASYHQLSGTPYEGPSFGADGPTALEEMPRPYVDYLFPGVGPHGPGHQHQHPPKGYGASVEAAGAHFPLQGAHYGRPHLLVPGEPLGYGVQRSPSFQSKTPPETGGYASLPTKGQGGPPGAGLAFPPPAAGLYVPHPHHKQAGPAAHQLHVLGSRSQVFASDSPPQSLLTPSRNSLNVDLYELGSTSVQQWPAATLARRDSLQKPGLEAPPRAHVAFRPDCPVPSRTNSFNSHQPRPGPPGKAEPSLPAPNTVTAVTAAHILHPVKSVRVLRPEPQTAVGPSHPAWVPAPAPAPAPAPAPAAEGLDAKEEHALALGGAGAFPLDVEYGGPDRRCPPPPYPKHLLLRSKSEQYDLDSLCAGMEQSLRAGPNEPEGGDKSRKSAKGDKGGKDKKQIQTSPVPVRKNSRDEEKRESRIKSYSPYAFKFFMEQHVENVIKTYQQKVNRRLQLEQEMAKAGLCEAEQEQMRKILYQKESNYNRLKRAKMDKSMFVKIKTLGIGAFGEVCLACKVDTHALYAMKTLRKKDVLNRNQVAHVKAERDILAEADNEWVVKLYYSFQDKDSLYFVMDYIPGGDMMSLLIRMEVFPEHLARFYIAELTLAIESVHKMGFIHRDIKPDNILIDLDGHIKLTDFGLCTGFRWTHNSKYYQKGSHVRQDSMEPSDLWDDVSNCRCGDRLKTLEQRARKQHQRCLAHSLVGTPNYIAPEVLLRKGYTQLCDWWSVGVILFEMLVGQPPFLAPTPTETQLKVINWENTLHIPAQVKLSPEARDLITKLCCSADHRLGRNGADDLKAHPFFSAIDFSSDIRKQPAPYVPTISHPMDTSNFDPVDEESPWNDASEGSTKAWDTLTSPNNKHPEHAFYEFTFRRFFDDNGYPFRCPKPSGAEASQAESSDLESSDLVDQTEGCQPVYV
Particulars: LATS2; 1 uM.
Protocol: as §1

various enzymes (Homo sapiens, UniProt O60674), sequence (O60674 whole entry): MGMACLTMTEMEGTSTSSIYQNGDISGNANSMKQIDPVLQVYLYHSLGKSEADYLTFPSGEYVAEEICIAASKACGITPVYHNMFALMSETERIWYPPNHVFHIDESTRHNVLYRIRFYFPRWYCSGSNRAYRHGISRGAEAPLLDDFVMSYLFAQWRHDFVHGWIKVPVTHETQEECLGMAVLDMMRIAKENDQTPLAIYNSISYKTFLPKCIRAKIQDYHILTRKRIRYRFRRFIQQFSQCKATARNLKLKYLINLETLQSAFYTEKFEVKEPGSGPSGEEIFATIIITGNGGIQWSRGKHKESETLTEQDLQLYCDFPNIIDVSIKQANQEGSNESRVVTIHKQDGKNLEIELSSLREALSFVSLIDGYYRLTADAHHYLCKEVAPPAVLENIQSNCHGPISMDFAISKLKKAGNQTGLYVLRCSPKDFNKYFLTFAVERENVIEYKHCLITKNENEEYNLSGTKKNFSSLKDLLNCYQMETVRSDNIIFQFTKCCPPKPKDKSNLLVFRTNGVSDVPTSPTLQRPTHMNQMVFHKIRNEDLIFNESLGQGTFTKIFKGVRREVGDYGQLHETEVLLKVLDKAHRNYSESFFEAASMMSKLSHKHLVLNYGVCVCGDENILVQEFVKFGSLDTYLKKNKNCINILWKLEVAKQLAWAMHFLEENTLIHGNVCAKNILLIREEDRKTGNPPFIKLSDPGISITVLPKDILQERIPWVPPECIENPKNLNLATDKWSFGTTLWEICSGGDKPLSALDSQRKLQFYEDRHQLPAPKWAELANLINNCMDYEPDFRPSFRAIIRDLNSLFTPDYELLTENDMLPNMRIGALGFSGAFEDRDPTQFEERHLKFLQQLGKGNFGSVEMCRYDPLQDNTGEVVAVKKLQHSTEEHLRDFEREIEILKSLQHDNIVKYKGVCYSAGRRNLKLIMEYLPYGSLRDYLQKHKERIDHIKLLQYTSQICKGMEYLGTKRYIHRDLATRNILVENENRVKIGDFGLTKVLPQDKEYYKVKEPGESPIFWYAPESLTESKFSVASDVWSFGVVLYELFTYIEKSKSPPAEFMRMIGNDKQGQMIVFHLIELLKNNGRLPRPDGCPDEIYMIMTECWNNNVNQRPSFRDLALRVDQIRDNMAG
various enzymes (Homo sapiens, UniProt O94804), sequence (O94804 whole entry): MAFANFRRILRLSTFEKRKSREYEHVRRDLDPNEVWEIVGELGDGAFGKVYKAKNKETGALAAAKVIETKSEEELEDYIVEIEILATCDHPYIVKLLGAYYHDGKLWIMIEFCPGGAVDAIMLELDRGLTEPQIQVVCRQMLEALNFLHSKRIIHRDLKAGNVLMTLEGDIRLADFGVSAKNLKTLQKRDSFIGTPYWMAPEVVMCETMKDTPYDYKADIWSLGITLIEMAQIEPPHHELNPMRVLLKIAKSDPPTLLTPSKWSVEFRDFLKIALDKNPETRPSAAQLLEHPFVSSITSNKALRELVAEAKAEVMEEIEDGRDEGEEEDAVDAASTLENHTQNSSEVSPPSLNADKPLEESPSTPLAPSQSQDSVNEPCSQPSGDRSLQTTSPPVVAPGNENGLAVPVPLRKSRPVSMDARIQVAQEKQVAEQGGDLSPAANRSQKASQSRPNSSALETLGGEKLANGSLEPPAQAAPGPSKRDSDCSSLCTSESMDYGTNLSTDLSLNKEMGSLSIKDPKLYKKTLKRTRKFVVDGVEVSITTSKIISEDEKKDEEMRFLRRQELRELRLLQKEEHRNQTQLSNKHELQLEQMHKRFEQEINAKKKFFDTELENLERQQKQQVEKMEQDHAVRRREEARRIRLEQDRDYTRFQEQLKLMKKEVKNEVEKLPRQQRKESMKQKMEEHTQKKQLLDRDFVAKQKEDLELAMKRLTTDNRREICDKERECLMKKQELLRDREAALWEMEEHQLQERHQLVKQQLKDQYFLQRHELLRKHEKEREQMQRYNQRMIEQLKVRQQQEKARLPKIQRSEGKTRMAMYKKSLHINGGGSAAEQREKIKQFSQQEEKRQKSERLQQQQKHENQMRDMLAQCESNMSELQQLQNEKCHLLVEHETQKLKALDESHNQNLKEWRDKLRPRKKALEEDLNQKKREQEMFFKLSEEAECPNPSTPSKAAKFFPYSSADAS
various enzymes (Homo sapiens, UniProt O15075), sequence (O15075 whole entry): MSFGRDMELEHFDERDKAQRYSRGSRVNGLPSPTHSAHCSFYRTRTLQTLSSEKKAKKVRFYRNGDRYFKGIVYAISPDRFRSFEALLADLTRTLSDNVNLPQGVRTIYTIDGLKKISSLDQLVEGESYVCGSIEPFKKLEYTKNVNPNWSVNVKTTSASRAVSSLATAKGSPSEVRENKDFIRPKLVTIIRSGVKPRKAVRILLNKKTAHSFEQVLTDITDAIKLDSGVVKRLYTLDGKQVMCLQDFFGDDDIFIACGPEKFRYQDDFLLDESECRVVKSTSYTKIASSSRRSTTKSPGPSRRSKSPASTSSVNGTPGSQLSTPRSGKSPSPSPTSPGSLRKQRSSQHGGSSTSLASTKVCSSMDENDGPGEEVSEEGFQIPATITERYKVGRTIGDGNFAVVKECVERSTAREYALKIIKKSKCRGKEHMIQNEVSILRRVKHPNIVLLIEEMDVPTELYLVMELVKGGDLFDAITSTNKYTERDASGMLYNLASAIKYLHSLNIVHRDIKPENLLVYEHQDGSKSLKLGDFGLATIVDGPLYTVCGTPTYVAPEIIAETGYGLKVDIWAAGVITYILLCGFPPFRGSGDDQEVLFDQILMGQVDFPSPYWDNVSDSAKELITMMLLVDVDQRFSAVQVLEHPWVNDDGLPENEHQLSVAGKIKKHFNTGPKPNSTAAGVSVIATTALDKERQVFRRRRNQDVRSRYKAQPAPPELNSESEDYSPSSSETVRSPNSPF

Turning to `CN1Cc2nn(C)cc2-c2cnc3[nH]cc(c3c2)-c2cnn(c2)CCCC1=O` [Compound 41, (Z)-31,5-dimethyl-11H,21H,31H-5-aza-2(3,5)-pyrrolo[2,3-b]pyridina-1(4,1),3(4,3)-dipyrazolacyclononaphan-6-one], the Ambit profiling at various enzymes [1] stood at 65; on various enzymes [2] it was 0.5; on various enzymes [3], 74; at various enzymes [4] (EGFR(L856R), 1 uM) it was 87; on various enzymes [5], 80; at various enzymes [6], 100. Besides, the Ambit profiling at various enzymes [7] amounted to 63.

For `CN1Cc2nn(C)c(C#N)c2-c2cnc3[nH]cc(c3c2)-c2cn(nc2C(F)(F)F)CCCC1=O` [Compound 48, (Z)-31,5-dimethyl-6-oxo-13-(trifluoromethyl)-11H,21H,31H-5-aza-2(3,5)-pyrrolo[2,3-b]pyridina-1(4,1),3(4,3)-dipyrazolacyclononaphane-35-carbonitrile], the Ambit profiling is recorded as 92 on various enzymes [1]; 81 on various enzymes [2]; 52 on various enzymes [3]; 63 at various enzymes [4]; 99 on various enzymes [5]; 87 on various enzymes [6]. The compound further yielded an Ambit profiling on various enzymes [7] of 100.
